Results: patent US8192962B2, “Processes for detecting toxic substances” (Daikin Industries, Ltd., priority 2001, dated 2012)

System: Genes belonging to other category
Assay: DNA chip mRNA expression in yeast, genes belonging to other category (Table 9)
Type: cell-based, Saccharomyces cerevisiae S288C
Description: Yeast (Saccharomyces cerevisiae S288C (α SUC2mal mel gap2 CUP1)) were incubated at 25° C. on YPD medium (yeast extract 1%, polypepton 2%, glucose 2%). One of toxic chemical substances was added to the cells at logarithmic growth phase, and the cells were further incubated for two hours. Cells were cultured without any chemical substance in the same condition, and were used as control. Concentrations of the chemical substances were defined to inhibit the growth of the yeast but not lead to death.
After completion of the incubation, the culture was centrifuged to collect the cells. To the cells, sodium acetate buffer (50 mM sodium acetate, 10 mM EDTA, 1% SDS) was added, and the mixture was shaken at 65° C. for five minutes, followed by returning to room temperature, and obtaining the supernatant, of which the procedures were repeated two times. To the supernatant, ½ amount of a solution of phenol/chloroform was added, and the mixture was centrifuged to give a supernatant, which was added with an equal amount of chloroform, and the mixture was centrifuged to give a supernatant. To the supernatant, an equal amount of isopropanol containing 0.3 M sodium acetate was added, and the mixture was allowed to stand at room temperature for 30 minutes, after which the mixture was centrifuged to give a sediment of the whole RNAs. Seventy % ethanol was added to the sediment, and the mixture was again centrifuged to give a sediment, which was then dried and dissolved in water. mRNA was isolated from the whole RNAs as followings. In view of the fact that a poly A chain is attached to the 3′ terminus of mRNA, a polynucleotide having a poly T structure which was immobilized on the surface of latex beads was used to trap the mRNA, and then the mRNA was washed and eluted with spine column (Oligotex-dT30<Super>mRNA Purification Kit, Takara). Reverse transcription of the mRNA was conducted with a reverse transcriptase (Super Script II Reverse Transcriptase; catalogue No. 18064-014, GibcoBRL) using fluorescence-labeled nucleotides to give cDNAs that were introduced with Cy3-dUTP or Cy5-dUTP during the reverse transcription.
The labeled cDNAs were dissolved in TE buffer (10mM Tris-HCl/1 mM EDTA, pH8.0), and the solution was dropped on the DNA chip containing the whole genes of yeast (DNA Chip Research Inc. Japan) so that the cDNAs were hybridized on the DNA chip at 65° C. for over 12 hours. The fluoresces intensity of the DNA chip was read with a scanner, and the ratio relative to the fluorescence intensity resulting from the absence of chemical substance was estimated as the following, which is shown in Tables 1 to 9: […]

SMILES: [Cl][Cd][Cl] [(2), CdCl2]
- The level of expressed mRNA in the presence of chemical substance/The level of expressed mRNA in the absence of chemical substance (yeast gene YKL008C): 0.6
- The level of expressed mRNA in the presence of chemical substance/The level of expressed mRNA in the absence of chemical substance (yeast gene YKL013C): 0.9
- The level of expressed mRNA in the presence of chemical substance/The level of expressed mRNA in the absence of chemical substance (yeast gene YKL039W): 1.1
- The level of expressed mRNA in the presence of chemical substance/The level of expressed mRNA in the absence of chemical substance (yeast gene YKL096W): 0.6
- The level of expressed mRNA in the presence of chemical substance/The level of expressed mRNA in the absence of chemical substance (yeast gene YKL165C): 2.0
- The level of expressed mRNA in the presence of chemical substance/The level of expressed mRNA in the absence of chemical substance (yeast gene YKL193C): 0.8
- The level of expressed mRNA in the presence of chemical substance/The level of expressed mRNA in the absence of chemical substance (yeast gene YLR120C): 1.9
- The level of expressed mRNA in the presence of chemical substance/The level of expressed mRNA in the absence of chemical substance (yeast gene YLR136C): 9.0
- The level of expressed mRNA in the presence of chemical substance/The level of expressed mRNA in the absence of chemical substance (yeast gene YLR178C): 6.9
- The level of expressed mRNA in the presence of chemical substance/The level of expressed mRNA in the absence of chemical substance (yeast gene YLR250W): 1.0
- The level of expressed mRNA in the presence of chemical substance/The level of expressed mRNA in the absence of chemical substance (yeast gene YLR327C): 3.3
- The level of expressed mRNA in the presence of chemical substance/The level of expressed mRNA in the absence of chemical substance (yeast gene YLR356W): 2.9
- The level of expressed mRNA in the presence of chemical substance/The level of expressed mRNA in the absence of chemical substance (yeast gene YLR362W): 1.2
- The level of expressed mRNA in the presence of chemical substance/The level of expressed mRNA in the absence of chemical substance (yeast gene YLR391W): 0.7
- The level of expressed mRNA in the presence of chemical substance/The level of expressed mRNA in the absence of chemical substance (yeast gene YLR429W): 1.0
- The level of expressed mRNA in the presence of chemical substance/The level of expressed mRNA in the absence of chemical substance (yeast gene YMR004W): 0.9
- The level of expressed mRNA in the presence of chemical substance/The level of expressed mRNA in the absence of chemical substance (yeast gene YMR094W): 0.5
- The level of expressed mRNA in the presence of chemical substance/The level of expressed mRNA in the absence of chemical substance (yeast gene YMR104C): 14.3
- The level of expressed mRNA in the presence of chemical substance/The level of expressed mRNA in the absence of chemical substance (yeast gene YMR219W): 1.1
- The level of expressed mRNA in the presence of chemical substance/The level of expressed mRNA in the absence of chemical substance (yeast gene YMR226C): 1.8
- The level of expressed mRNA in the presence of chemical substance/The level of expressed mRNA in the absence of chemical substance (yeast gene YMR275C): 0.7
- The level of expressed mRNA in the presence of chemical substance/The level of expressed mRNA in the absence of chemical substance (yeast gene YMR276W): 1.4
- The level of expressed mRNA in the presence of chemical substance/The level of expressed mRNA in the absence of chemical substance (yeast gene YMR314W): 1.2
- The level of expressed mRNA in the presence of chemical substance/The level of expressed mRNA in the absence of chemical substance (yeast gene YNL006W): 2.1
- The level of expressed mRNA in the presence of chemical substance/The level of expressed mRNA in the absence of chemical substance (yeast gene YNL007C): 2.4
- The level of expressed mRNA in the presence of chemical substance/The level of expressed mRNA in the absence of chemical substance (yeast gene YNL093W): 6.4
- The level of expressed mRNA in the presence of chemical substance/The level of expressed mRNA in the absence of chemical substance (yeast gene YNL333W): 1.4
- The level of expressed mRNA in the presence of chemical substance/The level of expressed mRNA in the absence of chemical substance (yeast gene YNR010W): 1.2
- The level of expressed mRNA in the presence of chemical substance/The level of expressed mRNA in the absence of chemical substance (yeast gene YNR069C): 1.3
- The level of expressed mRNA in the presence of chemical substance/The level of expressed mRNA in the absence of chemical substance (yeast gene YOL013C): 1.0
- The level of expressed mRNA in the presence of chemical substance/The level of expressed mRNA in the absence of chemical substance (yeast gene YOL164W): 4.4
- The level of expressed mRNA in the presence of chemical substance/The level of expressed mRNA in the absence of chemical substance (yeast gene YOR036W): 0.9
- The level of expressed mRNA in the presence of chemical substance/The level of expressed mRNA in the absence of chemical substance (yeast gene YOR117W): 1.3
- The level of expressed mRNA in the presence of chemical substance/The level of expressed mRNA in the absence of chemical substance (yeast gene YOR124C): 1.1
- The level of expressed mRNA in the presence of chemical substance/The level of expressed mRNA in the absence of chemical substance (yeast gene YOR132W): 1.6
- The level of expressed mRNA in the presence of chemical substance/The level of expressed mRNA in the absence of chemical substance (yeast gene YOR157C): 1.3
- The level of expressed mRNA in the presence of chemical substance/The level of expressed mRNA in the absence of chemical substance (yeast gene YOR181W): 0.9
- The level of expressed mRNA in the presence of chemical substance/The level of expressed mRNA in the absence of chemical substance (yeast gene YOR185C): 1.3
- The level of expressed mRNA in the presence of chemical substance/The level of expressed mRNA in the absence of chemical substance (yeast gene YOR198C): 0.7
- The level of expressed mRNA in the presence of chemical substance/The level of expressed mRNA in the absence of chemical substance (yeast gene YOR259C): 1.1
- The level of expressed mRNA in the presence of chemical substance/The level of expressed mRNA in the absence of chemical substance (yeast gene YOR261C): 1.4
- The level of expressed mRNA in the presence of chemical substance/The level of expressed mRNA in the absence of chemical substance (yeast gene YOR288C): 1.3
- The level of expressed mRNA in the presence of chemical substance/The level of expressed mRNA in the absence of chemical substance (yeast gene YOR355W): 0.6
- The level of expressed mRNA in the presence of chemical substance/The level of expressed mRNA in the absence of chemical substance (yeast gene YOR383C): 4.3
- The level of expressed mRNA in the presence of chemical substance/The level of expressed mRNA in the absence of chemical substance (yeast gene YPL089C): 1.0
- The level of expressed mRNA in the presence of chemical substance/The level of expressed mRNA in the absence of chemical substance (yeast gene YPL109C): 2.5
- The level of expressed mRNA in the presence of chemical substance/The level of expressed mRNA in the absence of chemical substance (yeast gene YPL149W): 1.5
- The level of expressed mRNA in the presence of chemical substance/The level of expressed mRNA in the absence of chemical substance (yeast gene YPL154C): 3.3
- The level of expressed mRNA in the presence of chemical substance/The level of expressed mRNA in the absence of chemical substance (yeast gene YPR103W): 1.1
- The level of expressed mRNA in the presence of chemical substance/The level of expressed mRNA in the absence of chemical substance (yeast gene YPR108W): 1.0
